Experimental data as given in patent US7615638B2, “Synthesis of grossularines-1 and analogs thereof and method of use” (City of Hope, priority 2006, dated 2009).
Where two headings read alike, the source gives them in different places.

System: DU145 human prostate cancer cells
Experiment: MTS viability assay in DU145 human prostate cancer cells
Conditions: for IC50: read-out: IC50 (cell viability); for cell viability (cytotoxicity), initial screening: 30 μM compound, DU145 cells (FIG. 8)
[1] = 0.1 to 20 μM, 48 h, MTS, DU145 cells (FIGS. 9-12)

Experimental: An MTS assay is a colorimetric experimental method to determine the number of viable cells in cytotoxicity assays and utilizes 3-(4,5-dimethylthiazol-2-yl)-5-(3-carboxymethoxyphenyl)-2-(4-sulfophenyl)-2H-tetrazolium, inner salt (MTS).
The experimental setup was as follows: DU145 human prostate cancer cells were obtained from ATCC and cultured in RPMI-1640 medium containing 10% fetal bovine serum (FBS), 100 units/ml of penicillin, and 100 μg/ml streptomycin. All cells were maintained in a 5% CO2 atmosphere at 37° C. To determine the viability of the cells, MTS assays were performed as described by the supplier (Promega; Madison, Wis.). Briefly, cells (5,000/well) were seeded in 96-well plates and incubated overnight at 37° C. in 5% CO2. Cells were treated for 48 h with 30 μM of each compound for initial screenings.
MTS dye was added to each well for 1 h. Cell viability was determined by tetrazolium conversion to its formazan dye and absorbance of formazan was measured at 490 nm. Values are the mean ±SD. Each experiment was performed in quadruplicate.
Dimethyl sulfoxide (DMSO) was used as the vehicle control. MTS dye was added to each 96-well plate well for one hour. Cell viability was determined by tetrazolium conversion to its formazan dye and absorbance of formazan was measured at 490 nm using an automated ELISA plate reader. The production of formazan dye was directly proportional to the number of living cells.
DU145 cells (5,000 cells/each well) were treated in dose-dependent manner for 48 h. Then, MTS assay was performed with four samples for each experiment.

Row | IC50 (Homo sapiens, DU-145, 48 h) | IC50 [1] | Compound | cell viability (cytotoxicity), initial screening (48 h, MTS)
1 | 1.8 µM |  | CN(C)c1nc2c([nH]1)c(C(=N)c1c[nH]c3ccccc13)nc1[nH]c3ccccc3c12 [Compound 8] | 
2 |  | 7.3 µM | N,N-didesmethylgrossularine-1 [Compound 2] | complete loss of cell viability
3 |  | 10.3 µM | grossularine-1 [Compound 1] | complete loss of cell viability
